PubChem BioAssay AID330 (DTP/NCI, 2004)
Values joined by “and” are separate entries in the source; they are usually repeats but may differ in a detail not shown here. Equal entries are not always repeated. Toxic doses and inconclusive results are not listed. How the source made its calls: active means survival T/C of 150% or more; inactive means T/C below 125% in these data.

System: P388 leukemia ip, CD2F1 mice, survival T/C
Experiment: NCI In Vivo Anticancer Drug Screen. Data for tumor model P388 Leukemia (intraperitoneal) in CD2F1 (CDF1) mice
Conditions: endpoint: median survival time, higher = longer survival
Outline: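 Mice carrying the transplanted tumor received test compound or vehicle. Survival was recorded in each group, and the value is the treated-group measurement divided by that of the vehicle-treated control group.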

[1] = dose: 60.0 mg/kg/injection, schedule: Q01DX005 (ip), vehicle: saline
[2] = dose: 120.0 mg/kg/injection, schedule: Q01DX005 (ip), vehicle: saline
[3] = dose: 240.0 mg/kg/injection, schedule: Q01DX005 (ip), vehicle: saline
[4] = dose: 50.0 mg/kg/injection, schedule: Q01DX009 (ip), vehicle: Klucel (hydroxypropylcellulose) (HPC)
[5] = dose: 100.0 mg/kg/injection, schedule: Q01DX009 (ip), vehicle: Klucel (hydroxypropylcellulose) (HPC)
[6] = dose: 200.0 mg/kg/injection, schedule: Q01DX009 (ip), vehicle: Klucel (hydroxypropylcellulose) (HPC)
[7] = dose: 50.0 mg/kg/injection, schedule: Q01DX005 (ip), vehicle: Klucel (hydroxypropylcellulose) (HPC)
[8] = dose: 100.0 mg/kg/injection, schedule: Q01DX005 (ip), vehicle: Klucel (hydroxypropylcellulose) (HPC)
[9] = dose: 200.0 mg/kg/injection, schedule: Q01DX005 (ip), vehicle: Klucel (hydroxypropylcellulose) (HPC)
[10] = dose: 60.0 mg/kg/injection, schedule: Q01DX005 (ip), vehicle: saline with Tween-80
[11] = dose: 120.0 mg/kg/injection, schedule: Q01DX005 (ip), vehicle: saline with Tween-80
[12] = dose: 240.0 mg/kg/injection, schedule: Q01DX005 (ip), vehicle: saline with Tween-80
[13] = dose: 25.0 mg/kg/injection, schedule: Q01DX009 (ip), vehicle: saline
[14] = dose: 50.0 mg/kg/injection, schedule: Q01DX009 (ip), vehicle: saline
[15] = dose: 50.0 mg/kg/injection, schedule: Q01DX005 (ip), vehicle: saline with Tween-80
[16] = dose: 100.0 mg/kg/injection, schedule: Q01DX009 (ip), vehicle: saline
[17] = dose: 200.0 mg/kg/injection, schedule: Q01DX009 (ip), vehicle: saline

Measured: T/C

COC1OCCCO1
inactive: [1] 103 % of control | [2] 104 % of control | [3] 107 % of control

O=c1c(Cl)c2oc3cc([N+](=O)[O-])ccc3nc-2c(Cl)c1Cl
inactive: [4] 107 % of control | [5] 99 % of control | [6] 91 % of control

c1ccc(Cc2cc(-c3cc(Cc4ccccc4)[nH]n3)n[nH]2)cc1
inactive: dose: 60.0 mg/kg/injection, schedule: Q01DX005 (ip), vehicle: Klucel + Tween-80 101 % of control | dose: 120.0 mg/kg/injection, schedule: Q01DX005 (ip), vehicle: Klucel + Tween-80 106 % of control | dose: 240.0 mg/kg/injection, schedule: Q01DX005 (ip), vehicle: Klucel + Tween-80 107 % of control

CCCOC1=NC2=NC(OCCC)=NC3=C(Br)C=C(Br)C(=N1)N23
inactive: [7] 95 % of control | [8] 94 % of control | [9] 91 % of control

COC(=O)/C=C(/C(=O)OC)N(O)C(=O)CN1C(=O)c2ccccc2C1=O
inactive: [10] 102 % of control | [11] 100 % of control | [12] 101 % of control

O=C1CCCC2=C1[Se]C1(O2)C(=O)CCCC1=O
inactive: dose: 12.5 mg/kg/injection, schedule: Q01DX009 (ip), vehicle: saline 102 % of control | [13] 101 % of control | [14] 104 % of control and 107 % of control

CCc1nc(N)nc(N)c1-c1ccc([N+](=O)[O-])cc1
inactive: [15] 108 % of control | dose: 100.0 mg/kg/injection, schedule: Q01DX005 (ip), vehicle: saline with Tween-80 108 % of control

Cc1ccc(Nc2ncnc3c2c(=O)n(C)c(=O)n3C)cc1
inactive: dose: 30.0 mg/kg/injection, schedule: Q01DX005 (ip), vehicle: saline with Tween-80 88 % of control | [10] 90 % of control | [11] 90 % of control

O=C1C(=O)c2cccnc2-c2ncccc21
inactive: dose: 1.56 mg/kg/injection, schedule: Q01DX005 (ip), vehicle: Klucel (hydroxypropylcellulose) (HPC) 115 % of control | dose: 3.12 mg/kg/injection, schedule: Q01DX005 (ip), vehicle: Klucel (hydroxypropylcellulose) (HPC) 106 % of control | dose: 6.25 mg/kg/injection, schedule: Q01DX005 (ip), vehicle: Klucel (hydroxypropylcellulose) (HPC) 115 % of control

CCOC(=O)/C(C#N)=C(\O)CCCC(=O)O
inactive: [4] 88 % of control | [5] 91 % of control | [6] 90 % of control

O=C(Nc1ccc(Cl)cc1)Oc1ccc(Cl)cc1C(=O)c1ccccc1
inactive: [10] 111 % of control | [11] 110 % of control | [12] 112 % of control

Fc1cccc(NC(=S)SCc2ccc(Cl)cc2)c1
inactive: [13] 102 % of control | [14] 105 % of control | [16] 105 % of control | dose: 100.0 mg/kg/injection, schedule: Q01DX009 (ip), vehicle: suspension in saline 103 % of control

O=C1C=CC(=O)c2c(O)cccc21
inactive: dose: 0.39 mg/kg/injection, schedule: Q01DX009 (ip), vehicle: saline with Tween-80 93 % of control | dose: 0.75 mg/kg/injection, schedule: Q01DX009 (ip), vehicle: saline with Tween-80 95 % of control | dose: 0.78 mg/kg/injection, schedule: Q01DX009 (ip), vehicle: saline with Tween-80 93 % of control | dose: 1.5 mg/kg/injection, schedule: Q01DX009 (ip), vehicle: saline with Tween-80 90 % of control | dose: 1.56 mg/kg/injection, schedule: Q01DX009 (ip), vehicle: saline with Tween-80 102 % of control | dose: 3.13 mg/kg/injection, schedule: Q01DX009 (ip), vehicle: saline with Tween-80 90 % of control

N=c1nc(N)nc2c3cc(Br)ccc3nnn12
inactive: [10] 113 % of control | [11] 117 % of control | [12] 108 % of control

COc1cc2c(cc1OC)C1CC3(CCN1CC2)CC(=O)NC3=O (centres undefined)
inactive: dose: 50.0 mg/kg/injection, schedule: Q01DX005 (ip), vehicle: saline 97 % of control | dose: 100.0 mg/kg/injection, schedule: Q01DX005 (ip), vehicle: saline 99 % of control | dose: 200.0 mg/kg/injection, schedule: Q01DX005 (ip), vehicle: saline 90 % of control

CCN(CC)CCOC(=O)/C=C\c1cccc2c(=O)cc(-c3ccccc3)oc12
inactive: [14] 100 % of control | [16] 101 % of control | [17] 117 % of control

Cc1cc(C(O)(C(F)(F)F)C(F)(F)F)c(N)c(C(O)(C(F)(F)F)C(F)(F)F)c1
inactive: [7] 104 % of control | [8] 103 % of control

Clc1ccc(C2N(Cc3ccccc3)CCC3CCCCN32)cc1Cl (centres undefined)
inactive: dose: 50.0 mg/kg/injection, schedule: Q01DX009 (ip), vehicle: saline with Tween-80 87 % of control | dose: 100.0 mg/kg/injection, schedule: Q01DX009 (ip), vehicle: saline with Tween-80 91 % of control

CN(CCO)CC(O)Cn1cnc2c(N)ncnc21 (centres undefined)
inactive: [1] 95 % of control | [2] 97 % of control | [3] 100 % of control

COc1cc(C2C3=C(CCC3)Oc3cc4c(cc32)OCO4)cc(OC)c1OC (centres undefined)
inactive: [10] 91 % of control | [11] 86 % of control | [12] 86 % of control

NC1=C(O)C(=O)C(/C=C/c2ccccc2)O1 (centres undefined)
inactive: [10] 90 % of control | [11] 90 % of control | [12] 87 % of control

O=C1c2c(-c3ccccc3)ccc(-c3ccccc3)c2C2(O)OC1(O)c1c(-c3ccccc3)ccc(-c3ccccc3)c1C2=O
inactive: [7] 94 % of control | [8] 90 % of control | [9] 92 % of control

Nc1cccc(=O)[nH]1
inactive: [16] 95 % of control | [17] 109 % of control | dose: 400.0 mg/kg/injection, schedule: Q01DX009 (ip), vehicle: saline 113 % of control and 123 % of control

CN(C)c1ccc(N=NN=c2n(C)c3ccccc3n2C)c(Cl)c1
inactive: dose: 6.25 mg/kg/injection, schedule: Q01DX005 (ip), vehicle: saline with Tween-80 103 % of control | dose: 12.5 mg/kg/injection, schedule: Q01DX005 (ip), vehicle: saline with Tween-80 106 % of control and 109 % of control | dose: 25.0 mg/kg/injection, schedule: Q01DX005 (ip), vehicle: saline with Tween-80 113 % of control and 115 % of control | [15] 117 % of control

C1=CC2C(c3cccc4ccccc34)O[C@H]2O1 (some centres undefined)
inactive: dose: 7.5 mg/kg/injection, schedule: Q01DX005 (ip), vehicle: Klucel (hydroxypropylcellulose) (HPC) 97 % of control | dose: 15.0 mg/kg/injection, schedule: Q01DX005 (ip), vehicle: Klucel (hydroxypropylcellulose) (HPC) 97 % of control | dose: 30.0 mg/kg/injection, schedule: Q01DX005 (ip), vehicle: Klucel (hydroxypropylcellulose) (HPC) 97 % of control

O=C(C=C(C(F)(F)F)C(F)(F)F)c1ccccc1[N+](=O)[O-]
inactive: dose: 1.32 mg/kg/injection, schedule: Q04DX003 (ip), vehicle: other 109 % of control | dose: 2.0 mg/kg/injection, schedule: Q04DX003 (ip), vehicle: other 100 % of control | dose: 3.0 mg/kg/injection, schedule: Q04DX003 (ip), vehicle: other 109 % of control | dose: 4.5 mg/kg/injection, schedule: Q04DX003 (ip), vehicle: other 104 % of control | dose: 6.25 mg/kg/injection, schedule: Q04DX003 (ip), vehicle: other 109 % of control | dose: 25.0 mg/kg/injection, schedule: Q04DX003 (ip), vehicle: other 86 % of control

CS(=O)(=O)OCC1OCC(OS(C)(=O)=O)C1O (centres undefined)
inactive: dose: 50.0 mg/kg/injection, schedule: Q01DX001 (ip), vehicle: Klucel (hydroxypropylcellulose) (HPC) 101 % of control | dose: 100.0 mg/kg/injection, schedule: Q01DX001 (ip), vehicle: Klucel (hydroxypropylcellulose) (HPC) 102 % of control | dose: 200.0 mg/kg/injection, schedule: Q01DX001 (ip), vehicle: Klucel (hydroxypropylcellulose) (HPC) 101 % of control

NC1=C(O)C(=O)C(c2ccccn2)O1 (centres undefined)
inactive: dose: 25.0 mg/kg/injection, schedule: Q01DX001 (ip), vehicle: other 105 % of control | dose: 50.0 mg/kg/injection, schedule: Q01DX001 (ip), vehicle: other 119 % of control | dose: 100.0 mg/kg/injection, schedule: Q01DX001 (ip), vehicle: other 116 % of control
